From ChEMBL document CHEMBL4017543, “Inhibitors to Overcome Secondary Mutations in the Stem Cell Factor Receptor KIT” (J Med Chem, 2017)

Key:
[1] = molecular target: Mast/stem cell growth factor receptor Kit (Homo sapiens, UniProt P10721, D816H); experiment: Inhibition of KIT D816H mutant (unknown origin) using biotinylated poly-Glu-Tyr as substrate preincubated for 30 mins followed by substrate addition in presence of ATP by TR-FRET assay; settings: read-out: IC50
[2] = tested on: Mast/stem cell growth factor receptor Kit (Homo sapiens), P10721 [V654A]; settings: GIST430
Chain of Mast/stem cell growth factor receptor Kit (Homo sapiens), P10721 [V654A] (P10721 whole entry V654A): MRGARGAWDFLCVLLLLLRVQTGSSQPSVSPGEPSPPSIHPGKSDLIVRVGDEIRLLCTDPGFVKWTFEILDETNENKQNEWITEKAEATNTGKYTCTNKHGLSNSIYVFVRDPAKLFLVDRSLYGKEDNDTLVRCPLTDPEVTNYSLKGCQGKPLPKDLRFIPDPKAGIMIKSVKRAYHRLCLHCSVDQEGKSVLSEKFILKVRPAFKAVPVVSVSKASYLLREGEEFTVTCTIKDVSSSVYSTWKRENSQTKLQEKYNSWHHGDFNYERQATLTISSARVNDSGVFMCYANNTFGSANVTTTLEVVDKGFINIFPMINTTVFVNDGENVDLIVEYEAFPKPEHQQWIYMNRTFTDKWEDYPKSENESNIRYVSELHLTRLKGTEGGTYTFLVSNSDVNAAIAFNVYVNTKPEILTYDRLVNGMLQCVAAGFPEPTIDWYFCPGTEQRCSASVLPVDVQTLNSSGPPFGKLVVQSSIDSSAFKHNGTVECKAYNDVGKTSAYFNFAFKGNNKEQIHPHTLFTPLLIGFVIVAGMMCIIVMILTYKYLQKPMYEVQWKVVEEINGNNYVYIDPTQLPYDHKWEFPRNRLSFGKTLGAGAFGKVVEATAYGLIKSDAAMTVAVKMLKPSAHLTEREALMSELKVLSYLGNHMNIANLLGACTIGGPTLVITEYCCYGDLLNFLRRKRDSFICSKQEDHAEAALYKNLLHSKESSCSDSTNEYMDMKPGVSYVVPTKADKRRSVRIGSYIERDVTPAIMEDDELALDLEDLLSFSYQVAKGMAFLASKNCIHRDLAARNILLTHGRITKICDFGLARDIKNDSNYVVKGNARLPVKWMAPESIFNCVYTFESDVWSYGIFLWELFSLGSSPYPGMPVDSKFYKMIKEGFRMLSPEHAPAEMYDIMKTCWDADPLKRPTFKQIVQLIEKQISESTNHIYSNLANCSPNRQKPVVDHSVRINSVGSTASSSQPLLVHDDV

[3] = molecular target: Mast/stem cell growth factor receptor Kit (Homo sapiens, UniProt P10721, T670I/V559D)
Chain of Mast/stem cell growth factor receptor Kit (Homo sapiens, UniProt P10721, T670I/V559D) (P10721 26-976 V559D/T670I limits assumed): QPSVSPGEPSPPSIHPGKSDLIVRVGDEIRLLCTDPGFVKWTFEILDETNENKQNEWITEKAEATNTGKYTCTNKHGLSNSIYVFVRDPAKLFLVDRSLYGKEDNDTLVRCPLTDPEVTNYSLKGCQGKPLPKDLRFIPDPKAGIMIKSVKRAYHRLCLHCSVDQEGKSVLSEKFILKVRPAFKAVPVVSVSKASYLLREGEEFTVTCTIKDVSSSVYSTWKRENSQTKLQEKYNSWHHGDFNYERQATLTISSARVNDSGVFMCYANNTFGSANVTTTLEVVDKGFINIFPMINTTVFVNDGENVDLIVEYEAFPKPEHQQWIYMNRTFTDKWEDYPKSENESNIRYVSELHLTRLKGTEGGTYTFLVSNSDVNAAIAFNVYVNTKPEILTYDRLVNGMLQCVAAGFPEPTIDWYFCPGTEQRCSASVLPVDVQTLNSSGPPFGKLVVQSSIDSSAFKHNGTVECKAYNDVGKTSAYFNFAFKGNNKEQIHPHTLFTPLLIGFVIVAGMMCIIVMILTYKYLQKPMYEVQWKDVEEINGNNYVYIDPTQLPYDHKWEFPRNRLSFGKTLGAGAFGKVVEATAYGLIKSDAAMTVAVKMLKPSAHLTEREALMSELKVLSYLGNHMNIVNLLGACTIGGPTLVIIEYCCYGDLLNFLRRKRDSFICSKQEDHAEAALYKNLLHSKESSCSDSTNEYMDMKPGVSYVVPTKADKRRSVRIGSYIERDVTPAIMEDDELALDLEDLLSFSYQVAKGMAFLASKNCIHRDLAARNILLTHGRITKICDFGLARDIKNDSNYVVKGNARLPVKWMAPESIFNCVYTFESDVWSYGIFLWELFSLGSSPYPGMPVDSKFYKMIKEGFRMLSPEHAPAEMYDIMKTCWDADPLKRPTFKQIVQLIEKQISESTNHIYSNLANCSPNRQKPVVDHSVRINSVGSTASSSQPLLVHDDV

[4] = Cytotoxicity against human GIST48B cells assessed as cell growth inhibition after 72 hrs by CellTiterGlo assay; format: cell-based; settings: GIST48B cells
GISTT1 [5] = experiment: Cytotoxicity against human GISTT1 cells assessed as cell growth inhibition after 72 hrs by CellTiterGlo assay; format: functional; settings: GISTT1, 72 h
[6] = Protein binding in mouse plasma at 5 uM after 6 hrs by equilibrium dialysis method; format: ADME, cell-free; settings: read-out: PPB (converted)
[7] = Intrinsic clearance in human liver microsomes at 3 uM after 60 mins by LC-MS analysis; format: ADME, microsome; settings: read-out: CLH
[8] = Efflux ratio of apparent permeability across basolateral to apical over apical to basolateral side in human Caco2 cells at 10 uM after 2 hrs by LC-MS/MS; format: ADME, cell-based; settings: Caco-2
[9] = Metabolic stability in mouse plasma assessed as compound remaining at 5 uM after 60 mins by LC-MS analysis; format: ADME, cell-free; settings: read-out: Stability
GISTT1 [10] = experiment: Cytotoxicity against human GISTT1 cells harboring KIT T670I mutant assessed as cell growth inhibition after 72 hrs by CellTiterGlo assay; format: functional; settings: GISTT1, 72 h
[11] = molecular target: Mast/stem cell growth factor receptor Kit (Homo sapiens, UniProt P10721, V559D/V654A)
Chain of Mast/stem cell growth factor receptor Kit (Homo sapiens, UniProt P10721, V559D/V654A) (P10721 26-976 V559D/V654A limits assumed): as the sequence (P10721 26-976 V559D/T670I limits assumed) above, with V629A, I645T counted along it

GISTT1 [12] = experiment: Cytotoxicity against human GISTT1 cells harboring KIT D816E mutant assessed as cell growth inhibition after 72 hrs by CellTiterGlo assay; format: functional; settings: GISTT1, 72 h
[13] = molecular target: Mast/stem cell growth factor receptor Kit (Homo sapiens, UniProt P10721); experiment: Inhibition of wild type KIT (unknown origin) using biotinylated poly-Glu-Tyr as substrate preincubated for 30 mins followed by substrate addition in presence of ATP by TR-FRET assay
Chain of Mast/stem cell growth factor receptor Kit (Homo sapiens, UniProt P10721) (P10721 whole entry): as the sequence (P10721 whole entry V654A) above, with A654V counted along it

[14] = Protein binding in human plasma at 5 uM after 6 hrs by equilibrium dialysis method; format: ADME, cell-free; settings: read-out: PPB (converted)
[15] = Metabolic stability in human plasma assessed as compound remaining at 5 uM after 60 mins by LC-MS analysis; format: ADME, cell-free; settings: read-out: Stability
[16] = Intrinsic clearance in mouse liver microsomes at 3 uM after 60 mins by LC-MS analysis; format: ADME, microsome; settings: read-out: CLH

Chain of Mast/stem cell growth factor receptor Kit (Homo sapiens, UniProt P10721, D816H) (P10721 26-976 D816H limits assumed): as the sequence (P10721 26-976 V559D/T670I limits assumed) above, with D534V, I645T, D791H counted along it

| Structure (SMILES) | IC50 [1] | GI50 [2] | IC50 [3] | GI50 at 72 h [4] | GI50 (GISTT1 [5]) | fraction unbound at 6 h, 5 µM [6] | microsomal CLint at 3 µM [7] | efflux ratio at 2 h, 10 µM [8] | remaining at 1 h, 5 µM [9] | GI50 (GISTT1 [10]) | IC50 [11] | GI50 (GISTT1 [12]) | IC50 [13] | fraction unbound at 6 h, 5 µM [14] | remaining at 1 h, 5 µM [15] | microsomal CLint at 3 µM [16] |
| --- | --- | --- | --- | --- | --- | --- | --- | --- | --- | --- | --- | --- | --- | --- | --- | --- |
| Cc1ccc(C(=O)Nc2ccc(CN3CCN(C)CC3)c(C(F)(F)F)c2)cc1C#Cc1cnc(N)nc1 | 0.0422 µM | 0.051 µM | 0.0214 µM | 2.02 µM | 0.023 µM | 0.004 | 1 µL/min/mg | < 1 | 50% | 0.044 µM | 0.247 µM | 0.141 µM | 0.0019 µM | 0.004 | 91% | – |
| Cc1c(C#Cc2cnc(N)nc2)cccc1C(=O)Nc1ccc(CN2CCN(C)CC2)c(C(F)(F)F)c1 | 0.326 µM | 0.308 µM | 0.021 µM | 15.8 µM | 0.035 µM | 0.016 | 9 µL/min/mg | < 1 | 84% | 0.051 µM | 1.08 µM | 0.381 µM | 0.0062 µM | 0.016 | 59% | 36 µL/min/mg |
